Data from ChEMBL document CHEMBL3507680, “University of Dundee, Gates Library screen for HepG2 cell viability”.

Experiment: Human HepG2 cell viability assay in 384 well format
Format: toxicity, cell-based
Parameters: dose 125 nL, time 70.5 hour; concentration not given beside the values
Details: HepG2 cells, read-out: Inhibition

| Structure (SMILES) | cytotoxicity at 70.5 h |
| --- | --- |
| COc1ccc2[nH]cc(C(=O)CNc3nc(C)cs3)c2c1 | 6.66% |
| Oc1ccc(N2CCN(Cc3cc4c(cc3Br)OCCO4)CC2)cc1 | 5.3% |
| O=C1CSC(c2ccc3c(c2)OCO3)c2cnn(C3CCCCC3)c2N1 (stereo not given) | -13.7% |
| Cc1ncoc1C(=O)N1CCOC(Cc2ccccc2)C1 (stereo not given) | -6.6% |
| Cn1cc(CN2CCOC(Cc3cccc(F)c3)C2)cn1 (stereo not given) | -6% |
| Fc1ccc(-c2noc(CN3CCC(c4cc[nH]n4)CC3)n2)cc1 | -3.56% |
| N#Cc1ccc(CN2CCC(CCc3ccc(O)cc3)CC2)cc1 | 11% |
| CC(C)(C)NC(=O)CN1CCCN(c2ccc(C#N)cn2)CC1 | -6.98% |
| CCCn1nnnc1COc1cc(OC)ccc1C(=O)OC | -7.14% |
| Cc1cc(C)nc(N2CCCC2c2cccnc2)n1 (stereo not given) | -2.91% |
| N#Cc1ncn(CCS(=O)(=O)c2ccc(Br)cc2)n1 | 4.43% |
| FC(F)(F)c1[nH]nc2c1CN(Cc1ccccc1)CC2 | -11.1% |
| CC(=O)c1ccc(C(=O)NCCCOC(C)c2ccccc2)s1 (stereo not given) | 1.1% |
| CC(C)CNC(=O)CN(CC(=O)NCC(C)C)S(C)(=O)=O | -8.05% |
| Cc1cc(NCc2ccc(N3CCNC(=O)C3)cc2)nc(C)n1 | -1.91% |
| CC1CCN(Cc2cc(=O)[nH]c(=O)[nH]2)CC1 | 8.26% |
| O=C(NCC1CCCO1)C1CCN(Cc2nc(C3CC3)no2)CC1 (stereo not given) | 3.81% |
| CS(=O)(=O)NCC1CCCCN1C(=O)c1csc(-c2ccsc2)n1 (stereo not given) | 0.102% |
| COc1cc(C)c(C(C)NC(=O)c2cccnc2N(C)C)cc1OC (stereo not given) | -6.36% |
| Cc1csc(CCNc2ccc(C#N)cn2)n1 | -11.4% |
| Cc1ccc(F)cc1NC(=O)NCC(C)N1CCOCC1 (stereo not given) | 9.4% |
| Cc1[nH]ncc1CCCNC(=O)Nc1ccc(C#N)cc1 | -4.85% |
| CN(C)c1nc2sc(C(=O)N3CCN(C(=O)OC(C)(C)C)CC3)cc2s1 | -8.07% |

| Structure (SMILES) | cytotoxicity at 70.5 h |
| --- | --- |
| Cc1nnc(CN2CCOC(c3ccc(Cl)cc3)C2)o1 (stereo not given) | 0.631% |
| COCCOc1ncccc1CNC(=O)N1CCOCC1 | -7.27% |
| Cc1cc(C2CCCN2CCCc2nc3ccccc3o2)on1 (stereo not given) | -16.1% |
| O=C(c1cccnc1Oc1ccccc1)N1CCCn2ncnc21 | 4.54% |
| COC(=O)c1cccc(C(=O)N(C)Cc2cccc(O)c2)c1 | 15.5% |
| CC(C)(CNc1ccc(S(=O)(=O)C(F)F)cc1)N1CCOCC1 | 18.8% |
| CS(=O)(=O)N1CCN(Cc2ccc(F)cc2Br)CC1 | -9.98% |
| O=C1CCCc2cc(-c3csc(CCN4CCOC4=O)n3)ccc2N1 | -0.559% |
| Cc1nc2ccccc2c(=O)n1Cc1nnnn1C1CC1 | 1.18% |
| Cc1ccc(C(=O)N(C)CC(=O)NCC(F)(F)F)cn1 | 0.05% |
| c1ccc(C2CCN(c3cncc(-n4cccn4)n3)CC2)cc1 | -4.22% |
| Cc1ncc(CN(C)C(=O)Nc2cccc(N3CCOC3=O)c2)s1 | 25% |
| CC(=O)N(C)Cc1ccccc1NC(=O)c1cnn(C)c1C | -0.121% |
| COC(=O)C1CCN(C(=O)CN2CCN(c3cccc(C)c3)CC2)CC1 | -8.14% |
| CCC(NC(N)=O)c1ccccc1OCC(=O)N1CCCC1 (stereo not given) | -10.1% |
| CS(=O)(=O)c1ccc(Cl)c(NC(=O)NCCC2=CCCCC2)c1 | -8.84% |
| CCN(C(=O)c1cccc2c1OCO2)c1ccccc1 | -4.98% |
| Cc1nn(C)c(Cl)c1S(=O)(=O)N(C)C | 1.44% |
| Cc1ccnc(NC(=O)c2ccc(Br)o2)c1 | -4.47% |
| COc1ccccc1COCC(O)CN(C)Cc1cccc(Cl)c1 (stereo not given) | -23.5% |
| O=c1cc(CNCc2ccc3c(c2)OCO3)nc2ccc(Br)cn12 | 0.0084% |
| Cc1ccc(C(CC(=O)O)NC(=O)CCc2cccs2)cc1 (stereo not given) | -1.09% |
| Cc1ccc(Cl)cc1N1CCN(CC(=O)NC(C)c2ccco2)CC1 (stereo not given) | 1.33% |

| Structure (SMILES) | cytotoxicity at 70.5 h |
| --- | --- |
| COCCCN(Cc1ccccn1)S(=O)(=O)N(C)C | 26.3% |
| CC(C)Oc1ccc(C(=O)Nc2nncs2)cn1 | 5.43% |
| CN(C)C(=O)c1cccc(CNc2ccc(C#N)cn2)c1 | 5.12% |
| CN(c1cccnn1)C1CCN(C(=O)c2n[nH]c3c2CCC3)CC1 | -4.09% |
| CC(=O)Nc1nc(-c2ccccc2)c[nH]1 | 3.67% |
| CCC1CCCCCN1C(=O)c1nnc2ccccc2c1N (stereo not given) | -2.66% |
| CCCS(=O)(=O)N1CCN(c2cc(-n3cccc3)nc(C)n2)CC1 | -5.53% |
| CC(=O)OC1CN(c2nc3c(C(F)(F)F)cccc3s2)C1 | -11.8% |
| CC(=O)N1CCC(CSCc2ccco2)CC1 | 12.9% |
| O=C(c1ccco1)N1CCC(CSCc2ccco2)CC1 | -7.2% |
| O=C(c1ccccn1)N1CCC(Oc2cccnc2)CC1 | -8.37% |
| COCCc1noc(C2CCN(S(=O)(=O)c3cccs3)CC2)n1 | 10.6% |
| COc1c2ccc(C(=O)NCCCn3ncccc3=O)cc2nn1C | 13.9% |
| O=C(c1cccc(S(=O)(=O)NCCCc2ccco2)c1)N1CCOCC1 | 3.78% |
| Cc1cc(-c2nnc(SCC(=O)O)n2C(C)c2ccccc2)nn1C (stereo not given) | -0.677% |
| COc1ccc2cc(C3CN(C(=O)C4CCOCC4)CCO3)ccc2c1 (stereo not given) | 1.57% |
| C=Cc1ccc(C(=O)N2CCCC(Nc3ccc(OC)cc3)C2)cc1 (stereo not given) | -7.62% |
| CC[C@@]1(O)CCN(C(=O)c2ccc(-c3cccc(F)c3)cc2)C[C@H]1O | -7.02% |
| Cc1cc(NCc2cc3n(n2)CCCN(C(=O)N(C)C)C3)ncn1 | -12.5% |
| Cc1c(F)cccc1CN1CCn2nc(CNC(=O)N(C)C)cc2C1 | 20% |
| Cc1c[nH]c(CN(C)c2nc(C3CCCC3)nc3c2cnn3C)n1 | -2.19% |
| CN1C(=O)CC(C(=O)O)C12CCN(Cc1ccc(Cl)cc1F)CC2 (stereo not given) | 2.06% |
| Cc1cccnc1NCCNC(=O)[C@H]1CNC[C@@H](C(=O)N2CCCC2)C1 | 0.731% |

| Structure (SMILES) | cytotoxicity at 70.5 h |
| --- | --- |
| O=C1O[C@@H]2CN(Cc3ccccc3)C[C@@H]2N1CCCN1CCOCC1 | -7.7% |
| CCS(=O)(=O)N1CCC2(CCCN(Cc3cc(OC)ccc3F)C2)C1 (stereo not given) | -6.66% |
| Cc1ccc(C(=O)N2CCC3(CCC(=O)N(CC(N)=O)C3)CC2)c(O)c1 | -9.11% |
| CCCc1nc(N2Cc3cnn(Cc4ccc(F)cc4)c3C2)no1 | -12.8% |
| Cc1nc(CC(=O)N2CCC[C@H]2c2nc(C(C)C)no2)cs1 | -1.93% |
| COc1ncccc1C(=O)NCC(C)Oc1cccnc1 (stereo not given) | -10.8% |
| CCNC(=O)[C@@H]1C[C@H](NC(=O)Cc2ccsc2)CN1Cc1ccc(C)o1 | -8.83% |
| COc1cccc(CN2CCCC(Nc3cccc(F)c3)C2)c1O (stereo not given) | -4.92% |
| CCn1ncnc1C(NC(=O)CC1CCN(C(C)C)CC1)C1CC1 (stereo not given) | 13.7% |
| O=C(C1CCC1)N1CCN(C(=O)c2cnccn2)[C@H]2CS(=O)(=O)C[C@H]21 | -11.7% |
| O=C(CN1CCNCC1)N1CC[C@@H](c2ccc3ccccc3c2)[C@H](O)C1 | -6.87% |
| O=C1CCC2(CCCN(C(=O)c3cscn3)C2)CN1CCc1c[nH]cn1 (stereo not given) | -9.29% |
| Cc1cc(N2CCN(Cc3ccc(C)o3)CC2)cc(C)n1 | -9.4% |
| CCN1CC2(CCN(CCOCCO)CC2)CC(c2ccccc2)C1=O (stereo not given) | 3.81% |
| CCSCCNC(=O)C(c1cccc(C)c1)N(C)C (stereo not given) | 35.5% |
| COC(=O)c1ccc2ccn(CC3CCCO3)c(=O)c2c1 (stereo not given) | -0.903% |
| COc1cccc(OCC2CCCN(C3CCN(C(C)=O)CC3)C2)c1 (stereo not given) | -4.72% |
| Cc1cc(C)n(CC(=O)N(C)Cc2csc(-c3cccs3)n2)c(=O)n1 | 6.7% |
| c1cnn(Cc2nnc(C3CCN(C4CCOCC4)CC3)n2C2CC2)c1 | -10.6% |
| Cn1ccnc1-c1ccccc1C(=O)N1CCc2c(nc(N)[nH]c2=O)C1 | -11.8% |
| CC(=O)NCCC1CCCCN1S(=O)(=O)c1cccc(C#N)c1 (stereo not given) | -2.49% |
| Cc1ccc([C@@H]2CN(C(=O)c3cccnn3)C[C@H]2NC(=O)C2CC2)cc1 | -8.66% |
| CC(C)(C)c1ncc2c(n1)CN(C(=O)c1ccc(-c3nc[nH]n3)cc1)C2 | -1.51% |

| Structure (SMILES) | cytotoxicity at 70.5 h |
| --- | --- |
| Cc1cccnc1CN(C)CC1(O)CCCN(CC2CCCCC2)C1=O (stereo not given) | 18.2% |
| OC1(CN2CCCC2)CCCN(Cc2ccc(F)cc2Cl)C1 (stereo not given) | -7.3% |
| CCc1cc(N2CCSCC2)n2nc(C)c(C)c2n1 | 12.2% |
| CSCC[C@H](N)C(=O)NCc1cc2n(n1)CCCN(C1CCCCC1)C2 | -5.05% |
| CCSCC(C)NCc1nncn1C1CCCCC1 (stereo not given) | -2.76% |
| Cc1nc(CN2CCC(C(=O)O)(n3ccc(-c4ccco4)n3)CC2)co1 | -7.1% |
| Cc1cnn(C(C)C2CC2)c1NC(=O)c1cnccn1 (stereo not given) | -11.2% |
| COc1cc(CN2CCN(c3cccc(OC)c3)C(=O)C2)cc(OC)c1 | -1.7% |
| CCOCCNc1nc(C2CCCC2)nc2c1cnn2C | 0.172% |
| COCC(=O)N1CCC(c2nccn2CC2CC2)CC1 | -8.88% |
| CN(CCO)Cc1nnc(C2CCN(C3CCCCC3)CC2)n1C | -14.7% |
| CCN(CCn1cccn1)Cc1nc(-c2ccccc2F)oc1C | -7.43% |
| COc1cccc([C@@H]2CN(C(=O)c3ccc(C)cc3O)C[C@H]2C(=O)O)c1 | -5.65% |
| CCn1c(Cn2cncn2)nnc1C1CCN(Cc2ccc(C)o2)CC1 | -8.85% |
| O=C(c1cc(COc2ccc3c(c2)OCO3)[nH]n1)N1CCOCC1 | 9.33% |
| CC(C)(C)c1ncc2c(n1)CN(C(=O)c1ccncc1)C2 | -9.79% |
| CC(C)NS(=O)(=O)c1cc(C(=O)O)cc(-c2ccc(CN(C)C)cc2)c1 | 16.9% |
| Cc1[nH]ccc1C(=O)N1CCC(c2nnc(Cn3ccnc3)n2C)CC1 | -11.8% |
| Cc1nn(CCn2ccnc2-c2cc3n(n2)CCCNC3)c(C)c1Cl | 13.8% |
| CS(=O)(=O)NCCNCc1ccc(Br)s1 | 3.93% |
| CNCCc1nc2cc(F)ccc2[nH]1 | -5.66% |
| COc1cc(CNC(C)c2ccc(F)c(F)c2)cc2c1OCCO2 (stereo not given) | 1.07% |
| COc1ccc(CN(C)CC(O)COCc2ccccc2Cl)c(OC)c1 (stereo not given) | 16.2% |
